Results taken from US6160006A (priority 1997, dated 2000).
Read-outs that look alike come from different tables or passages of the source.

Experiments:
P450 [1] = conditions: in vivo, treated rats; cited from earlier work
CYP3A [2] = conditions: cited from earlier work
CYP3A [3] = assay: CYP3A activity: 6β-hydroxytestosterone formation from testosterone in rat liver microsomes
Protocol: (§1) Measurement of CYP3A Activity. CYP3A activity was assessed by measuring the formation rate of 6β-hydroxytestosterone from testosterone in dexamethasone-induced liver microsomes from male Sprague-Dawley rats (Human Biologics Inc., Phoenix, Az.) using incubation conditions identical to those described previously. Edwards, D. J. et al., Life Sci. 59:1025-1030 (1996). […] Siess, M.-H. et al., Toxicol. Appl. Pharmacol. 130:73-78 (1995). In addition, 6β-hydroxytestosterone formation was also measured in human lymphoblast microsomes containing CYP3A4 expressed from transfected human CYP3A4 cDNA (Gentest Corporation, Woburn, Mass.).
(§2) HPLC Procedures and instrumentation. […] Methylene chloride (4 ml) was added and samples were vortex mixed for 2 minutes. After centrifugation, the organic phase was evaporated, the residue re-constituted in 200 μl of mobile phase (55% methanol in water) and injected (100 μl) onto the column (Partisil 5 ODS-3 25 cm C18 column, Whatman Inc., Clifton, N.J.). A mobile phase flow rate of 1.2 ml/minute was used with detection of analytes at 254 nm (Waters 490E multiwavelength UV detector, Waters Corp., Milford, Mass.).
Metabolic Experiments. Grapefruit juice (1 ml) was extracted into methylene chloride and, following evaporation of the organic phase, the residue was reconstituted in mobile phase and chromatographed by HPLC. Fractions of the HPLC eluent were collected at 3-4 minute intervals following injection, evaporated and the effect of the residue on 6β-hydroxytestosterone formation examined. […] Edwards, D. J. et al., Life Sci. 59:1025-1030 (1996). The effect of these solutions on 6β-hydroxytestosterone formation was compared using analysis of variance (SYSTAT for Windows™, Version 5.0) with the Tukey test for post-hoc analysis (p<0.05 for significance).

CYP3A4 (3A4) = assay: Inhibition of CYP3A4 in a purified enzyme preparation; type: biochemical
P450 3A4 [4] = molecular target: T1, P450 3A4 (Homo sapiens, UniProt P08684); conditions: for inhibition: e. coli membranes
Target sequence in this assay (P08684 whole entry): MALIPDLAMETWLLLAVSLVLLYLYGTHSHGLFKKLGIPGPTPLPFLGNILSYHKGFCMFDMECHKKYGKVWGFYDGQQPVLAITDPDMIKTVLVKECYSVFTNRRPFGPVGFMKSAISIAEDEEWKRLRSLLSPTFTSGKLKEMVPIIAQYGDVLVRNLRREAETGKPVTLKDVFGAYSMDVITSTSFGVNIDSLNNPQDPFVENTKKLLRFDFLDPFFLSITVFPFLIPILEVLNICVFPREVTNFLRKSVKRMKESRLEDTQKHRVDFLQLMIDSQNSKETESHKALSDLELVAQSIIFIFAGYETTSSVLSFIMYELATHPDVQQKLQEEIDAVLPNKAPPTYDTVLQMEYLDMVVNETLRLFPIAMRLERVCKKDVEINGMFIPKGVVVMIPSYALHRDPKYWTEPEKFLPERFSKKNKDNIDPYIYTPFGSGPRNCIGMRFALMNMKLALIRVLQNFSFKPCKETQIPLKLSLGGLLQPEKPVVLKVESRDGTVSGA
Target sequence in this assay (P16435 whole entry partner): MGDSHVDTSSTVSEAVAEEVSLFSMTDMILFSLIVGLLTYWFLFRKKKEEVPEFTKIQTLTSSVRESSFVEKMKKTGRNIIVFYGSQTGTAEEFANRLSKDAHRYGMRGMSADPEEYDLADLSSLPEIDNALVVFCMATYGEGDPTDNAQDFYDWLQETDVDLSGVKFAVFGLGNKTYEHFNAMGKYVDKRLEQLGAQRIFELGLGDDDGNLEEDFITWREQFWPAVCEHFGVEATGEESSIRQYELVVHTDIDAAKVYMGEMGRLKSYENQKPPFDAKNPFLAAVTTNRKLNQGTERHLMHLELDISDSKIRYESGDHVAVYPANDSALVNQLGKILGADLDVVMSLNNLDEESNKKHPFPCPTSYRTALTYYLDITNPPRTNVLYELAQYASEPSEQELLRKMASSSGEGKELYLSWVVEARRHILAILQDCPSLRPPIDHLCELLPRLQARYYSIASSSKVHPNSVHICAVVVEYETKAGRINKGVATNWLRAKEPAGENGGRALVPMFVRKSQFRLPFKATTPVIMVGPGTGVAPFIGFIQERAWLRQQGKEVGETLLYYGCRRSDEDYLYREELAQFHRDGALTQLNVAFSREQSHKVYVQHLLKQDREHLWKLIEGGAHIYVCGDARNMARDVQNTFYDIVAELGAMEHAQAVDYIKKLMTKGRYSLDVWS
Protocol: Determination of testosterone 6β-hydroxylation. The human liver microsomes or the P450 3A4 and reductase containing E. coli membrane fractions (100 μmol of P450) were incubated with 200 μM testosterone in 1 ml of 50 mM Hepes buffer (pH 7.5). The reactions were initiated by the addition of 1 mM NADPH and terminated by 1 ml of ethyl acetate in ice. The 6β-hydoxytestosterone product was determined by HPLC on a C18 column (Microsorb-MV, 5 μm, 4.6×15 cm) eluted with a mobile phase of 65% of methanol at flow rate of 1 ml/min and the eluate was monitored by UV detection at 254 nm.

P450 3A4 [5] = molecular target: T1, P450 3A4; assay: Inactivation of P450 3A4 in human liver microsomes (testosterone 6β-hydroxylation, P450 content); type: biochemical; parameters: The human liver microsomes was prepared by differential centrifugation; from tissue; host or cells: human liver (microsomes); conditions: for P450 Content / Testosterone 6-β hydroxylation: 400 μM DHB, 15 min, 37° C., pH 7.5
Protocol: Inactivation of P450 3A4 in human liver microsomes and E. coli membranes. […] At end of the incubation, 100 μl of the incubation mixture was taken for determination of testosterone 6β-hydroxylation activity. The other aliquot was used for P450 determination by the method of Omura and Sato. Ducharme, M. P. et al., Clin. Pharmacol. Ther. 57:485-491 (1995). The human liver microsomes was prepared by differential centrifugation.
Determination of testosterone 6β-hydroxylation. The human liver microsomes or the P450 3A4 and reductase containing E. coli membrane fractions ([…] of P450) were incubated with 200 μM testosterone in 1 ml of 50 mM Hepes buffer (pH 7.5). The reactions were initiated by the addition of 1 mM NADPH and terminated by 1 ml of ethyl acetate in ice. The 6β-hydoxytestosterone product was determined by HPLC on a C18 column (Microsorb-MV, 5 μm, 4.6×15 cm) eluted with a mobile phase of 65% of methanol at flow rate of 1 ml/min and the eluate was monitored by UV detection at 254 nm.
Target sequence in this assay (P08684 whole entry): as the sequence (P08684 whole entry) above

[6] = Solubility in ethanol versus water; type: physicochemical; conditions: ethanol vs water
human CYP3A4 = human CYP3A4 (Homo sapiens, UniProt P08684); assay: 6β-hydroxytestosterone formation in human lymphoblast microsomes containing CYP3A4 expressed from transfected human CYP3A4 cDNA
Protocol: as §1, §2
Metabolic Experiments. Grapefruit juice (1 ml) was extracted into methylene chloride and, following evaporation of the organic phase, the residue was reconstituted in mobile phase and chromatographed by HPLC. […]

P450 2B1 = conditions: cited from earlier work
P450 2B4 = conditions: cited from earlier work
cytochrome P450 [7] = conditions: dose far in excess of the amount in grapefruit juice; cited from earlier work
P450 [8] = conditions: oral erythromycin; oral and IV midazolam; cited from earlier work
CYP3A [9] = conditions: co-administration; cited from earlier work
P450 1A1 = conditions: cited from earlier work
P450 1A2 = conditions: cited from earlier work
oxidative metabolism = conditions: in vitro; cited from earlier work
CYP3A4 = conditions: human, in vivo; cited from earlier work
cytochrome P450 [10] = conditions: cited from earlier work
[11] = preincubation with DHB and NADPH

human CYP3A4, sequence (P08684 whole entry): as above

COc1c2occc2cc2ccc(=O)oc12 [8-methoxyporalen]
heme fragment, MI complex and heme adduct formation (P450 [1]): no heme fragment, MI complex and heme adduct formation

O=C1C[C@@H](c2ccc(O)cc2)Oc2cc(O)cc(O)c21 [naringenin]
inhibition of CYP3A / contribution to it (CYP3A [2]): do not significantly contribute

C/C(=C\COc1c2ccoc2cc2oc(=O)ccc12)CCC(O)C(C)(C)O (centres unmarked) [6',7'-dihydroxybergamottin]
inhibition, concentration dependence and need of pre-incubation (CYP3A [3]): inhibition is concentration-dependent and requires no pre-incubation with microsomes | IC50 (CYP3A [3]; microsomes): 25000 nM | inactivation of 3A4, in words (CYP3A4 (3A4)): potent NADPH- and time dependent inactivator of 3A4 | inhibition (P450 3A4 [4]): ~45% | inhibition (P450 3A4 [4]; 15 min): 90% | inactivation of 3A4, in words (P450 3A4 [4]; human 3A4 expressed in E. coli membrane): potent NADPH- and time dependent inactivator of 3A4 | effect of GSH on inactivation (P450 3A4 [5]; 2 mM GSH in the incubation system): not inhibited by the presence of 2 mM GSH | P450 Content (P450 3A4 [5]; +NADPH/+DHB): 0.87 nmol/mL | Testosterone 6-β hydroxylation (P450 3A4 [5]; +NADPH/+DHB): 0.18 nmol/nmol P450/min | P450 Content (P450 3A4 [5]; -NADPH/+DHB): 0.93 nmol/mL | Testosterone 6-β hydroxylation (P450 3A4 [5]; -NADPH/+DHB): 0.37 nmol/nmol P450/min | inhibition of 6β-hydroxytestosterone formation activity, mode (P450 3A4 [5]; FIG. 4, human liver microsomes): time and concentration dependent as well as requiring catalytic turnover | P450 3A4 activity inhibition, in words (P450 3A4 [5]; human liver microsomes): significantly inhibited | inactivation of 3A4, in words (P450 3A4 [5]; human liver microsomes): potent NADPH- and time dependent inactivator of 3A4 | P450 retained (reduced-CO spectrum) (P450 3A4 [5]; [11]): about 90% | loss of P450 3A4 catalytic activity (P450 3A4 [5]; [11]): 70% | inhibition at 20 µM (P450 3A4 [5]; without preincubation, final concentration of 20 μM, read-out: testosterone 6β-hydroxylase activity inhibited (competitive inhibition)): ~30% | solubility, in words [6]: much more soluble in ethanol than water | IC50 (human CYP3A4): 1000 to 2000 nM

C#Cc1cc2ccccc2c2ccccc12 [9-ethynylphenanthrene]
mechanism based inactivation (P450 2B1): mechanism based inactivation | mechanism based inactivation (P450 2B4): mechanism based inactivation

O=c1c(O)c(-c2ccc(O)c(O)c2)oc2cc(O)cc(O)c12 [quercetin]
effect on cytochrome P450 activity (cytochrome P450 [7]): no effect

CC[C@H]1OC(=O)[C@H](C)[C@@H](O[C@H]2C[C@@](C)(OC)[C@@H](O)[C@H](C)O2)[C@H](C)[C@@H](O[C@@H]2O[C@H](C)C[C@H](N(C)C)[C@H]2O)[C@](C)(O)C[C@@H](C)C(=O)[C@H](C)[C@@H](O)[C@]1(C)O [erythromycin]
metabolism of midazolam (P450 [8]): impaired the metabolism of midazolam after both oral and IV administration

CC(=O)N1CCN(c2ccc(OCC3COC(Cn4ccnc4)(c4ccc(Cl)cc4Cl)O3)cc2)CC1 (centres unmarked) [ketoconazole, reference compound]
IC50 (CYP3A [3]; read-out: concentration required to inhibit 6β-hydroxytestosterone formation by 50% (IC50), rat liver microsomes (dexamethasone-induced)): […] | bioavailability of cyclosporine (CYP3A [9]): increases bioavailability

COc1c2ccoc2cc2cc(C)oc(=O)c12 [coriandrin]
binding to apoP450 (P450 1A1): covalent binding | binding to apoP450 (P450 1A2): covalent binding

C[C@@H]1O[C@@H](O[C@H]2[C@H](Oc3cc(O)c4c(c3)O[C@H](c3ccc(O)cc3)CC4=O)O[C@H](CO)[C@@H](O)[C@@H]2O)[C@H](O)[C@H](O)[C@H]1O [naringin]
inhibition of oxidative metabolism (oxidative metabolism): weak inhibitor | effect on disposition of substrates for CYP3A4 (CYP3A4): did not significantly affect | inhibition of CYP3A / contribution to it (CYP3A [2]): do not significantly contribute

C#Cc1ccc2c(ccc3ccccc32)c1 [2-ethynylphenanthrene]
mechanism based inactivation (P450 2B1): mechanism based inactivation | mechanism based inactivation (P450 2B4): mechanism based inactivation

chlorophyllin
inhibition of cytochrome P450 activity (cytochrome P450 [10]): non-specific inhibition of cytochrome P450 activity
